{
  "source": "paper PMC8330740",
  "about": "“Discovery of new 3-methylquinoxalines as potential anti-cancer agents and apoptosis inducers targeting VEGFR-2: design, synthesis, and in silico studies” (Journal of Enzyme Inhibition and Medicinal Chemistry, 2021)",
  "key": {"[1]": {"system": "HepG2 (human liver carcinoma cell line)", "test": "MTT cytotoxicity assay, HepG2", "assay_type": "cell-based", "details": "mean of at least three different experiments", "description": "(§1) In vitro cytotoxicity was carried out using MTT assay protocol[47]^,[65–67] as described in Supplementary data."}, "[2]": {"system": "BAX", "test": "Western blot, BAX level in HepG2", "assay_type": "cell-based, human", "details": "HepG2, 24 h", "description": "(§2) Compound 11e as a promising member was investigated to evaluate its effect on BAX and Bcl-2 after 24 h of its application on HepG2 cells using Western blot technique.\n(§3) Western blot technique was applied to assess the potential effect of compound 11e on the expression of caspase‐9, caspase‐3, BAX, and Bcl‐2 as reported in Supplementary data[77–79]."}, "[3]": {"system": "primary rat hepatocytes", "test": "In vitro cytotoxicity against normal cells", "details": "Hepatocyte, read-out: IC50 primary rat hepatocytes"}, "[4]": {"system": "MCF-7 (human breast cancer cell line)", "test": "MTT cytotoxicity assay, MCF-7", "assay_type": "cell-based", "details": "Homo sapiens, MCF7; MTT assay; mean of at least three different experiments", "description": "as §1"}, "[5]": {"system": "HepG2 cells", "test": "Cell cycle analysis (propidium iodide staining, flow cytometry)", "assay_type": "cell-based, human", "details": "HepG2, 2.1 µM, 24 h", "description": "HepG2 cells were used as a control without treatment by compound 11e.\nThe effect of compound 11e on cell cycle distribution was performed using propidium iodide (PI) staining technique as described in Supplementary data[71–73]."}, "[6]": {"system": "HepG2 cells", "test": "Apoptosis analysis (Annexin-V/propidium iodide staining)", "assay_type": "cell-based, human", "details": "HepG2, 2.1 µM, 24 h", "description": "To quantify the apoptosis triggered by 11e, Annexin-V/propidium iodide (PI) staining assay was conducted. In such procedure, compound 11e at a concentration of 2.1 µM was applied on HepG2 cells. Then, the media were incubated for 24 h. […] In details, compound 11e induced apoptosis by 49.14% (early apoptosis = 48.87% & late apoptosis = 0.27%), compared to 9.71% in the control cells (early apoptosis = 9.58% & late apoptosis = 0.13%).\nThe effect of compound 11e on cell apoptosis was investigated as described in Supplementary data[74–76]."}, "[7]": {"system": "caspase-9", "test": "Western blot, caspase-9 level in HepG2", "assay_type": "cell-based, human", "details": "HepG2, 2.1 µM, 24 h; compared to control cells", "description": "(§4) To investigate the effect of the synthesised compounds on caspase-3 and caspase-9 levels, the most promising member 11e was applied on the most sensitive cells (HepG2) at a concentration of 2.1 µM for 24 h.\nas §3"}, "[8]": {"system": "Bcl-2", "test": "Western blot, Bcl-2 level in HepG2", "assay_type": "cell-based, human", "details": "HepG2, 24 h", "description": "as §2, §3"}, "[9]": {"target": "Human VEGFR-2 (Homo sapiens, UniProt P35968)", "sequence (P35968 20-1356)": "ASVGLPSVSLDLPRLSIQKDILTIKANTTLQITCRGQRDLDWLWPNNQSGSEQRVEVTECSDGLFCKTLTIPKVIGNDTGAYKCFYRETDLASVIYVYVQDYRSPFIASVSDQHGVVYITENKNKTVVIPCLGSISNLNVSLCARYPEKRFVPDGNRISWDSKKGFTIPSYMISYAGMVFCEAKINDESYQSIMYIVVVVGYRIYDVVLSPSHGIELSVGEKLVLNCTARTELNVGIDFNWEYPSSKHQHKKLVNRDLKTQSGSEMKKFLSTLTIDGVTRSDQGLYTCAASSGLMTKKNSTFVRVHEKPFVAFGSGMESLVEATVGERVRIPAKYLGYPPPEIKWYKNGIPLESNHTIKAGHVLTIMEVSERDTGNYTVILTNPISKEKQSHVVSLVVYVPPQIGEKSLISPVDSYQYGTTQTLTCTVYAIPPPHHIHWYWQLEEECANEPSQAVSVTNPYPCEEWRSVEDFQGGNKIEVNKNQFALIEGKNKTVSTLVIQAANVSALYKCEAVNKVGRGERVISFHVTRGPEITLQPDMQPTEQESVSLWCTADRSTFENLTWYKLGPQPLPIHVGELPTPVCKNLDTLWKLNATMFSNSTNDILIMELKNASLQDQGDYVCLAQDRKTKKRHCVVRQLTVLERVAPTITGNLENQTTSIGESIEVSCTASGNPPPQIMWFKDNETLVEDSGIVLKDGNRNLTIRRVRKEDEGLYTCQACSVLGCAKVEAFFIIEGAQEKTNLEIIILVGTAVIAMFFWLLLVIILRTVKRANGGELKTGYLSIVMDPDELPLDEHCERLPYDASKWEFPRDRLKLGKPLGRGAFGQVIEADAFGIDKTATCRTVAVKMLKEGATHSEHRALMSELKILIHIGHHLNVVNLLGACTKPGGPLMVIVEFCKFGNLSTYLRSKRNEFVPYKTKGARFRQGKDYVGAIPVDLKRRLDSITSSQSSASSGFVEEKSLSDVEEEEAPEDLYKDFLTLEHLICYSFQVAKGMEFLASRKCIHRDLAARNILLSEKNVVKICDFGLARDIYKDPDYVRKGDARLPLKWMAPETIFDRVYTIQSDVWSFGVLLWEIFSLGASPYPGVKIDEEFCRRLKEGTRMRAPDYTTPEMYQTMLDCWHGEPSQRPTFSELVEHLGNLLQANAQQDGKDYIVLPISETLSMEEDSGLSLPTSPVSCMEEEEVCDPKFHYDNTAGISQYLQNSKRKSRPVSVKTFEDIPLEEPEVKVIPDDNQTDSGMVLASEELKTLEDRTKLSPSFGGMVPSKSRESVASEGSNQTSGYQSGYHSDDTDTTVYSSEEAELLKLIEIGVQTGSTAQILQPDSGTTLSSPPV", "test": "In vitro VEGFR-2 kinase assay (Human VEGFR-2 ELISA kit)"}, "[10]": {"system": "caspase-3", "test": "Western blot, caspase-3 level in HepG2", "assay_type": "cell-based, human", "details": "HepG2, 2.1 µM, 24 h; compared to control cells", "description": "as §4, §3"}, "[11]": {"details": "mean ± SD of three experiments, listed as Compound 11e"}},
  "data": [
    {"smiles": "COc1cccc(NC(=O)c2ccc(NC(=O)Cn3c(=O)c(C)nc4ccccc43)cc2)c1", "note": "[Compound 11e, N-(3-Methoxyphenyl)-4–(2-(3-methyl-2-oxoquinoxalin-1(2H)-yl)acetamido)benzamide]", "values": [
      {"measurement": "IC50", "setting": "[1]", "value": 2.1, "unit": "µM"},
      {"measurement": "BAX level increase", "setting": "[2]", "value": 3.14, "unit": "fold"},
      {"measurement": "BAX/Bcl-2 ratio", "setting": "[2]", "value": 9.17},
      {"measurement": "IC50", "setting": "[3]", "value": 15, "unit": "µM"},
      {"measurement": "IC50", "setting": "[4]", "value": 2.7, "unit": "µM"},
      {"measurement": "phase at which HepG2 cell growth is arrested", "setting": "[5]", "value": "G2/M phase"},
      {"measurement": "percentage of cells at the G2/M phase", "setting": "[5]; control 18.24%", "value": 46.62, "unit": "%"},
      {"measurement": "percentage of cells at the S phase", "setting": "[5]; control 25.48", "value": 31.80, "unit": "%"},
      {"measurement": "percentage of cells at G1 phase", "setting": "[5]; control 55.03%", "value": 20.34, "unit": "%"},
      {"measurement": "induced apoptosis (early + late)", "setting": "[6]; control 9.71%", "value": 49.14, "unit": "%"},
      {"measurement": "Apoptosis Early (Right Bottom)", "setting": "[6]; mean ± SD of three experiments", "value": 48.87, "unit": "%"},
      {"measurement": "Apoptosis Late (Right Top)", "setting": "[6]; mean ± SD of three experiments", "value": 0.27, "unit": "%"},
      {"measurement": "Necrosis (Left Top)", "setting": "[6]; mean ± SD of three experiments", "value": "0.20 ± 0.03"},
      {"measurement": "Apoptosis Early (Right Bottom)", "setting": "[6]; [11]", "value": "48.87 ± 3.69", "unit": "%"},
      {"measurement": "Apoptosis Late (Right Top)", "setting": "[6]; [11]", "value": "0.27 ± 0.04", "unit": "%"},
      {"measurement": "viability at 2.1 µM", "setting": "[6]; Homo sapiens, mean ± SD of three experiments, read-out: Viable (Left Bottom)", "value": "50.6 ± 3.66", "unit": "%"},
      {"measurement": "increase in the level of caspase-9", "setting": "[7]", "value": 2.34, "unit": "fold"},
      {"measurement": "Bcl-2 level decrease", "setting": "[8]", "value": 3.13, "unit": "fold"},
      {"measurement": "IC50", "setting": "[9]", "value": 0.0026, "unit": "µM"},
      {"measurement": "increase in the level of caspase-3", "setting": "[10]", "value": 2.34, "unit": "fold"}
    ]}
  ]
}
